In patent US20090137652A1, “METHODS FOR NEUROPROTECTION” (priority 2005, published 2009):
Structures can show the parent of a compound that is named as a salt.

Columns and labels:
[1] = tested on: PC12 cells; experiment: PC12 cell serum withdrawal model, MTS cell survival assay; format: cell-based
Source text: Serum withdrawal is a cytotoxic environmental challenge that results in cell death in cultured cell lines as well as in primary cells of various tissue origins, including nerve cells. In particular, pheochromocytoma (PC) 12 cells have been widely employed as an in vitro neuronal cell model for a wide variety of neurodegenerative and cell death related disorders (Muriel, et al, Mitochondrial free calcium levels (Rhod-2 fluorescence) and ultrastructural alterations in neuronally differentiated PC12 cells during ceramide-dependent cell death, J. Comp. Neurol., 2000, 426(2), 297-315; Dermitzaki, et al, Opioids transiently prevent activation of apoptotic mechanisms following short periods of serum withdrawal, J. Neurochem., 2000, 74(3), 960-969; Carlile, et al, Reduced apoptosis after nerve growth factor and serum withdrawal: conversion of tetrameric glyceraldehyde-3-phosphate dehydrogenase to a dimer, Mol. Pharmacol., 2000, 57(1), 2-12). PC12 cells were cultured in sterile media (RPMI 1640) supplemented with 10% heat-inactivated horse serum and 5% fetal bovine serum (FBS). The culture medium also contained Penicillin-Streptomycin-Neomycin antibiotic (50 µg, 50 µg, 100 µg, respectively). Medium was exchanged every other day and the cells were passed in log phase near confluence.
The control cells were cultured in regular media without any treatment. An enantiomer of Formula 7 or Formula 8 (10 µM) was mixed well in the medium and then applied to the cells. For the 2 day assay, an enantiomer of Formula 7 or Formula 8 (10 µM) was only applied to the cells once at the time of serum withdrawal. For the 7 day assay, an enantiomer of Formula 7 or Formula 8 (10. mu.M) was applied to the cells at the time of serum withdrawal and every 48 hr thereafter when cells were changed with fresh new serum-free medium. In the serum withdrawal group, the cells were cultured in serum-free medium with no additional enantiomer of Formula 7 or Formula 8. Cell survival was determined by the 3-(4,5-dimethylthiazol-2-yl)-5-(3-[…])-2-(4-sulfophenyl)-2H-tetrazolium inner salt (MTS) assay at 2 or 7 days after serum withdrawal.
At the end of the experiment, cells were washed with fresh medium and incubated with MTS solution in a humidified 37° C. with 5% CO2 incubator for 1.5 hr. After the incubation period, the cells were immediately analyzed using a Softmax program (Molecular Devices). […] The assay is based on the cellular conversion of the tetrazolium salt, MTS, into a formazan that is soluble in tissue culture medium and measured directly at 490 nm in 96-well assay plates. The absorbance is directly proportional to the number of living cells in culture. The arbitrary absorbance reading in control cells is expressed as 100% survival rate.

[2] = tested on: transient cerebral ischemia middle cerebral artery occlusion (MCAO) rat model; experiment: Transient cerebral ischemia middle cerebral artery occlusion (MCAO) rat model, infarct volume; format: in vivo; details: MK 801 3 mg/kg i.p., N 12
Description: The enantiomer of Formula 7 (test compound) was investigated in the transient cerebral ischemia middle cerebral artery occlusion (MCAO) rat model (as described in Nagasawa H. and Kogure K., Stroke, 1989, 20, 1037; and, Zea Longa E., Weinstein P. R., Carlson S, and Cummins R., Stroke, 1989, 20, 84) using male Wistar rats at 10 and 100 mg/kg (i.v.). MK 801 (Dizocilpine maleate; CAS Registry number 77086-22-7, a commercially available neuroprotectant compound) was used as a positive control (3 mg/kg, i.p.).
Rats (n=12) were randomly allocated to one of four experimental groups and were anesthetized. Blood flow from the internal carotid artery, anterior cerebral artery and posterior cerebral artery into the middle cerebral artery was blocked by this procedure. One hour after blockage, animals were treated over a 1 hour period with vehicle (administered i.v. over the one hour period), control (administered as a single i.p. dose at the start of the one hour period) and two doses of the enantiomer of Formula 7 (administered i.v. over the one hour period). Two hours after blockage, reperfusion was performed.
The animals were sacrificed and […] coronal sections of each brain were prepared. One in every forty sections (i.e. every […]) from the front to the occipital cortex was used to quantify the extent of the cerebral lesion. Slides were prepared using sections stained (according to the Nissl procedure) with cresyl violet and were examined under a light microscope.
Regional ischemic surface areas in the coronal sections of individual rats were determined according to the presence of cells with morphological changes. The areas of neuronal injury or infarction were measured and then added. The cortex and striatum volume were calculated for each animal (total ischemic surface area×0.8 mm (thickness)).
The mean volumes (.+−.S.E.M.) for each animal randomly assigned to the four experimental groups were compared using one-way ANOVA (one way ANOVA is a statistical method which compares 3 or more unmatched groups) followed by Dunnett's t-test (both methods incorporated in Statview 512+software, BarinPower, Calabasas, Calif., USA).

SMILES	2 Day Survival Rate ([1]; 10 µM applied once at serum withdrawal, MTS assay 2 days after serum withdrawal, control 100, serum-free 49.6)	7 Day Survival Rate ([1]; 10 µM at serum withdrawal and every 48 hr, MTS assay 7 days after serum withdrawal, control 100, serum-free 23.8)	Mean Infarct Volume ± S.E.M., Striatum ([2]; vehicle 79.4)	Mean Infarct Volume ± S.E.M., Cortex ([2]; vehicle 275.5)	Mean Infarct Volume ± S.E.M., Total Volume ([2]; vehicle 354.9)
NC(=O)OC[C@H](OC(N)=O)c1ccccc1Cl [Formula 8]	66.4 ± 5.4^1%	85.2 ± 0.6^2%	–	–	–
C[C@]12N[C@H](Cc3ccccc31)c1ccccc12 [MK 801, Dizocilpine maleate, reference compound]	–	–	56.1 ± 5.3^2 mm^3	95.8 ± 24.5^1 mm^3	151.9 ± 28.7^1 mm^3
